In experiment [1] the target is T1, BRD4-BD12 (Homo sapiens, UniProt O60885).
T1 construct: dual bromodomains (BRD4-BD12 (1-477), BRD4-BD12 (1-472)); six-His tag (N); made in house; host or cells: E. coli BL21-CodonPlus (DE3)
Briefly: Alphascreen binding assay, BRD4(1 2) H4. The settings on record: BRD4 dual bromodomains with acetylated Histone 4 peptide, read-out: Biochemical activity (IC50 μM) BRD4(1 2) H4. The procedure: Binding of compounds of formula (I) with bromodomain 2, 3 4 was assessed using Alphascreen binding assay. The inhibition of the interaction between bromodomain and its acetylated target protein (Filippakopoulos P et al. 2012) was measured quantitatively using recombinant BRD proteins, an acetylated Histone 4 peptide and AlphaScreen™ technology. In absence of inhibition the BRD protein bound to AlphaScreen™ nickel chelate acceptor beads can interact with the acetylated Histone 4 peptide which is immobilized by the AlphaScreen™ Streptavidin coated beads. This interaction brings donor and acceptor beads in proximity. The close proximity allows the singlet oxygen produced by laser excitation of the donor beads to reach the acceptor beads and generate a luminescence signal. BRD inhibitors result in a decrease in the proximity signal through an inhibition of the BRD acetylated peptide interaction.
Recombinant human bromodomains containing the N-terminal bromodomain (BRD2-BD1 (71-194), BRD3-BD1 (24-144) and BRD4-BD1 (44-164)) or dual bromodomains (BRD4-BD12 (1-477), BRD4-BD12 (1-472)) were prepared and purified as described in protein expression and purification session. The peptide is human Histone H41-21K5AcK8AcK12AcK16Ac-Biotin (Anaspec Calif., USA).
Protocol for BRD2, BRD3 and BRD4 assay: All components are prepared in buffer composed of 50 mM HEPES pH 7.5, 100 mM NaCl, 0.01% BSA, 0.01% Triton X-100, 2 mM DTT. 7 μL of Bromodomain protein and 7 μL of peptide are added to wells containing 1 μL of various concentrations of test compounds of formula (I) or DMSO vehicle in an Alphaplate (PerkinElmer Ga., USA) and incubated for 1 hour at room temperature. 4 μL donor and acceptor bead mixture is then added with final concentrations of 7.5 μg/ml. 30 minutes after bead addition, Alpha signal is read on the Envision spectrometer (λEx 680 nm, λEm 520-620 nm). Final concentrations of bromodomain proteins and peptide are as shown below.
All data was normalized to the mean of 16 high and 16 low control wells on each plate. A four parameter curve fit of the following formula was then applied: Y=a+(b−a)/(1+(x/c)^d) Where ‘a’ is the minimum, ‘b’ is the maximum, ‘c’ is the pIC50 and ‘d’ is the Hill slope. Protein Expression and Purification
Recombinant human bromodomains containing the N-terminal bromodomain (BRD2-BD1 (71-194), BRD3-BD1 (24-144) and BRD4-BD1 (44-164)) or dual bromodomains (BRD4-BD12 (1-477), BRD4-BD12 (1-472)) were expressed in E. coli cells (in a modified pET vector) with an N-terminal six-His tag and purified using a combination of both IMAC (Ni-affinity) and size exclusion chromatography steps.
Recombinant BRD proteins were expressed using the E. coli strain BL21-CodonPlus (DE3) (Agilent Technologies CA, USA). Cells were grown in Terrific Broth (TB) media to an OD600 of 1.2 at 37° C. at which temperature was reduced to 25° C., protein was induced with 1.0 mM IPTG for 12-18 hours and harvested by centrifugation at 8000×g for 20 minutes. Cells were re-suspended in 0.1M KPO4 pH 8.0, 250 mM NaCl, 10% Glycerol, 0.75% NP-40, 25 mM Imidazole, 5 mM BME with 0.2 mg/ml Lysosyme, 2.0 mM PMSF, 25 μg/ml DNAse I, incubated on ice for 30 minutes and lyzed with a cell disruptor (MicroFluidics MA, USA). The lysate was clarified by centrifugation at 20,000×g for 2 hours. The protein was captured with Ni-NTA resin (Life Technologies, USA). Contaminating proteins were washed off with 25 mM Tris-HCl pH 8.3, 250 mM NaCl, 12% Glycerol and 50 mM Imidazole. Following 3× wash steps, protein was eluted step wise using a 50 mM HEPES pH 7.5, 500 mM NaCl and 400 mM Imidazole. The protein was further purified using Gel Filtration column 26/600 Superdex 200 (GE Biosciences N.J., USA) in 50 mM HEPES pH 7.5, 250 mM NaCl. The protein was aliquoted and flash-frozen in liquid Nitrogen.
For orientation: Alpha assays give light when donor and acceptor beads are brought close together.

Experiment [2] relates to MV-4-11. Briefly: Oncology cell growth assay, MV-4-11 3 d growth. The experiment is classed as cell-based. Particulars: Homo sapiens, MV4-11; MV-4-11 cells, 72 hours, CellTiter Glo; read-out: Cell activity (IC50 μM) MV-4-11 3 d-Growtb. The method, then:
(§1) In this study, we test compounds in different cancer cell lines. MV-4-11 and MOLM-13 are AML cell lines harboring a MLL-AF4 and MLL-AF9 translocation, respectively. MM.1S is a multiple myeloma cell line. SK—N-AS, IMR-32 and SK-N-BE(2) are neuroblastoma cell lines. IMR-32 and SK-N-BE(2) cell lines harbor MYCN amplifications.
(§2) MV-4-11, MM.1S, IMR-32, SK-N-AS and SK-N-BE(2) were obtained from ATCC (IL, USA) and MOLM-13 were purchased from DSMZ (Braunschweig, German). Cells are cultured as recommended by their sources. For growth inhibition studies 3000 cells are seeded in wells of a 96-well plate in 75 μL of culture media. After several hours, growth media containing compounds of formula (I) are added to the wells. Compound at a maximal concentration of 5 mM was serially diluted 1:3 for a total of 8 point titration with DMSO as a control. A 1 μL aliquot of each dilution point is added to 249 μL growth media and 75 μL is added to each well containing cells, providing 10 μM compound at the maximum concentration point. The final concentration of DMSO in all wells is 0.2%. Cells are incubated for 72 hours, and 25 μL of CellTiter Glo Reagent (Promega Ga., USA) is added to each well. Plates are shaken for approximately 10 minutes and chemiluminescent signal is read on Tecan microplate reader. The measured luminescence correlates directly with cell number.
(§3) All data is normalized to the mean of eight DMSO high control wells on each plate. A four parameter curve fit of the following formula was then applied: Y=a+(b−a)/(1+(x/c)^d) Where ‘a’ is the minimum, ‘b’ is the maximum, ‘c’ is the pIC50 and ‘d’ is the Hill slope. […] Myc Reporter Assay
In general terms: Cellular ATP, detected with luciferase, serves as a proxy for viable cell number.

In experiment [3] the test system is cancer cell lines / MV-4-11 Myc reporter cell line. Briefly: Bromodomain cell assays of Example 8 (at least one of them). The experiment is classed as cell-based. Particulars: Homo sapiens, MV4-11; at least one of the bromodomain cell assays described in Example 8. The procedure: as §1, §2, §3
In MV-4-11 cells, BRD2, BRD3 and BRD4 bind to the promoter region of MYC and regulate its transcription (Dawson M A et al. 2011). The literature bromodomain inhibitor iBET 151 could disrupt BRD4 recruitment to the MYC promoter and subsequently downregulate c-myc transcription (Dawson M A et al. 2011). Myc protein is a transcription factor that heterodimerizes with an obligatory partner Max and regulates the transcription of genes important for cell proliferation, differentiation, and apoptosis. This Myc reporter assay is used to monitor the inhibitory effect of compound of formula (I) on Myc dependent gene expression. Effective compounds could have potential therapeutic effects in Myc-driven tumors.
The MV-4-11 Myc reporter cell line is established by infecting MV-4-11 with VSV-g pseudotyped lentivirus expressing the firefly luciferase gene under the control of a minimal (m) CMV promoter and tandem repeats of the E-box transcriptional response element (TRE) (Qiagen IL, USA) and selecting cells in 2.5 μg/ml Puromycin.
The MV-4-11 Myc reporter cell line is maintained in Iscove's Modified Dulbecco's Medium containing 10% FBS, 1% PenStep and 2.5 μg/ml Puromycin. Cells are incubated at 37° C. in a humidified atmosphere with 5% CO2. 25,000 cells are seeded in 96-well plate in 50 μL of culture media. After several hours, growth media containing 2× compounds are added to the wells. Compound at a maximal concentration of 5 mM is serially diluted 1:3 for a total of 8 point titration. A 1 μl aliquot of each dilution point is added to 249 μl growth media and 50 μl is added to each well containing cells, providing 10 μM compound at the maximum concentration point. DMSO treated cells serve as a high control and 10 μM JQ1 treated cells serve as a low control. Cells are incubated for a further 24 hours and 25 μL of CellTiter-Fluo Reagent (Promega Ga., USA) is added to each well. Plates are shaken for approximately 2 minutes and incubated at 37° C. for 0.5 hour. Fluorescence signal is read in a Tecan Plate reader (λex=400 nm, λcm=505 nm). 25 μL of One-Glo Reagent (Promega Ga., USA) is then added to the plates. Chemiluminescent signal is read on Tecan plate reader. Values from the wells with no cells are subtracted from all samples for background correction. […]

The results in this text go back to US9856259B2, “Heterocyclic compounds and uses thereof” (Plexxikon Inc., priority 2014, dated 2018).

Usually IC50 stands for the concentration needed to halve the response being measured. As for `Cc1noc(C)c1-c1ccc2c(-c3cnn(C)c3)nn(CC3CCC(F)(F)CC3)c2c1` [Compound P-2001, 4-[1-[(4,4-difluorocyclohexyl)methyl]-3-(1-methylpyrazol-4-yl)indazol-6-yl]-3,5-dimethyl-isoxazole], the results for the IC50 in experiment [1], in experiment [2] and in experiment [3] were no more than 1 µM, no more than 1 µM and less than 10000 nM, respectively.

Consider `Cc1noc(C)c1-c1ccc2c(-c3cnn(CC(F)(F)F)c3)nn(CC3CCC(F)(F)CC3)c2c1` [Compound P-2002, 4-[1-[(4,4-difluorocyclohexyl)methyl]-3-[1-(2,2,2-trifluoroethyl)pyrazol-4-yl]indazol-6-yl]-3,5-dimethyl-isoxazole], for which the IC50 is no more than 1 µM in experiment [1], no more than 1 µM in experiment [2] and less than 10000 nM in experiment [3].

On to `Cc1noc(C)c1-c1ccc2c(I)nn(C(c3ccccc3)c3ccccn3)c2c1` (stereo not drawn) [Compound P-2003, 4-[3-iodo-1-[phenyl(2-pyridyl)methyl]indazol-6-yl]-3,5-dimethyl-isoxazole], for which the IC50 in experiment [1] is no more than 1 µM; in experiment [2], no more than 1 µM; in experiment [3], less than 10000 nM.

On to `Cc1noc(C)c1-c1ccc2c(-c3cnn(C)c3)nn(C(c3ccccc3)c3ccccn3)c2c1` (stereo not drawn) [Compound P-2004, 3,5-dimethyl-4-[3-(1-methylpyrazol-4-yl)-1-[phenyl(2-pyridyl)methyl]indazol-6-yl]isoxazole], for which the IC50 was no more than 1 µM in experiment [1], no more than 1 µM in experiment [2] and less than 10000 nM in experiment [3].

On to `Cc1noc(C)c1-c1ccc2c(-c3cnn(CC(F)(F)F)c3)nn(C(c3ccccc3)c3ccccn3)c2c1` (stereo not drawn) [Compound P-2005, 3,5-dimethyl-4-[1-[phenyl(2-pyridyl)methyl]-3-[1-(2,2,2-trifluoroethyl)pyrazol-4-yl]indazol-6-yl]isoxazole], for which the IC50 in experiment [1] is no more than 1 µM; in experiment [2], no more than 1 µM; in experiment [3], less than 10000 nM.

Regarding `COC(=O)c1ccc(-c2nn(C(c3ccccc3)c3ccccn3)c3cc(-c4c(C)noc4C)ccc23)cc1` (stereo not drawn) [Compound P-2006, methyl 4-[6-(3,5-dimethylisoxazol-4-yl)-1-[phenyl(2-pyridyl)methyl]indazol-3-yl]benzoate], the IC50 in experiment [1] was no more than 1 µM; in experiment [2] it was no more than 1 µM; in experiment [3], less than 10000 nM.

As for `Cc1noc(C)c1-c1ccc2c(-c3ccc(C(=O)O)cc3)nn(C(c3ccccc3)c3ccccn3)c2c1` (stereo not drawn) [Compound P-2007, 4-[6-(3,5-dimethylisoxazol-4-yl)-1-[phenyl(2-pyridyl)methyl]indazol-3-yl]benzoic acid], the values for the IC50 in experiment [1], in experiment [2] and in experiment [3] were no more than 1 µM, no more than 1 µM and less than 10000 nM, respectively.

With `COC(=O)Cc1ccc(-c2nn(C(c3ccccc3)c3ccccn3)c3cc(-c4c(C)noc4C)ccc23)cc1` (stereo not drawn) [Compound P-2008, methyl 2-[4-[6-(3,5-dimethylisoxazol-4-yl)-1-[phenyl(2-pyridyl)methyl]indazol-3-yl]phenyl]acetate], the IC50 is no more than 1 µM in experiment [1], no more than 1 µM in experiment [2] and less than 10000 nM in experiment [3].

With `Cc1noc(C)c1-c1ccc2c(-c3ccc(CC(=O)O)cc3)nn(C(c3ccccc3)c3ccccn3)c2c1` (stereo not drawn) [Compound P-2009, 2-[4-[6-(3,5-dimethylisoxazol-4-yl)-1-[phenyl(2-pyridyl)methyl]indazol-3-yl]phenyl]acetic acid], the values for the IC50 in experiment [1], in experiment [2] and in experiment [3] were no more than 1 µM, no more than 1 µM and less than 10000 nM, respectively.

On to `Cc1noc(C)c1-c1ccc2c(I)nn([C@@H](C)c3ccccn3)c2c1` [Compound P-2010, 4-[3-iodo-1-[(1S)-1-(2-pyridyl)ethyl]indazol-6-yl]-3,5-dimethyl-isoxazole], for which the IC50 in experiment [1] is no more than 1 µM; in experiment [2], no more than 1 µM; in experiment [3], less than 10000 nM.

On to `COC(=O)c1ccc(-c2nn([C@@H](C)c3ccccn3)c3cc(-c4c(C)noc4C)ccc23)cc1` [Compound P-2011, methyl 4-[6-(3,5-dimethylisoxazol-4-yl)-1-[(1S)-1-(2-pyridyl)ethyl]indazol-3-yl]benzoate], for which the IC50 in experiment [1] was no more than 1 µM; in experiment [2], no more than 1 µM; in experiment [3] it was less than 10000 nM.
